Laboratory results from US20050271588A1, “Liposome targeting of matrix metalloproteinase inhibitors” (priority 2001, published 2005).
Positions of bridges follow the written chain, without caps; N, C: chain ends. Residues, ends and D or L forms follow the SMILES beside them.

How the values were obtained:
[1] = test system: endothelial and tumor cell migration; conditions: cited from earlier work
[2] = test system: U937 cells; experiment: Cell killing by Adriamycin-containing liposomes, EthD-1 viability assay; type: cell-based; conditions: U937, 24 h, peptide 85 μM, Adriamycin 0.4 μM
Procedure: Viability assays. Peptide-liposome complexes with the encapsulated adriamycin were made as described above, yielding final concentrations of peptide, lipid, and adriamycin of 85 μM, 0.2 mM, and 0.4 μM, respectively, and were subsequently added to a ten μl (10^5 cells) sample of U937 cells. For the detection of dead cells EthD-1 was used. This fluorophore is membrane-impermeable and emits fluorescence only when bound to DNA (Papadopoulos et al., 1994). Accordingly, EthD-1 readily enters dead cells and binds to their DNA, its fluorescence intensity correlating to the amount of dead cells. EthD-1 emission was measured using microplate reader with excitation at 495 nm and emission at 635 nm. Student's t-test was used to assess statistical significance.

[3] = molecular target: T1, MMP-9 (Homo sapiens, UniProt P14780); experiment: Gelatinase assay with fluorogenic peptide substrate; type: biochemical; conditions: fluorogenic substrate; text says 8 μM 'in both assays'; liposomes 200 μM POPC/POPE
T1 construct: made in house
T1 sequence (P14780 94-707): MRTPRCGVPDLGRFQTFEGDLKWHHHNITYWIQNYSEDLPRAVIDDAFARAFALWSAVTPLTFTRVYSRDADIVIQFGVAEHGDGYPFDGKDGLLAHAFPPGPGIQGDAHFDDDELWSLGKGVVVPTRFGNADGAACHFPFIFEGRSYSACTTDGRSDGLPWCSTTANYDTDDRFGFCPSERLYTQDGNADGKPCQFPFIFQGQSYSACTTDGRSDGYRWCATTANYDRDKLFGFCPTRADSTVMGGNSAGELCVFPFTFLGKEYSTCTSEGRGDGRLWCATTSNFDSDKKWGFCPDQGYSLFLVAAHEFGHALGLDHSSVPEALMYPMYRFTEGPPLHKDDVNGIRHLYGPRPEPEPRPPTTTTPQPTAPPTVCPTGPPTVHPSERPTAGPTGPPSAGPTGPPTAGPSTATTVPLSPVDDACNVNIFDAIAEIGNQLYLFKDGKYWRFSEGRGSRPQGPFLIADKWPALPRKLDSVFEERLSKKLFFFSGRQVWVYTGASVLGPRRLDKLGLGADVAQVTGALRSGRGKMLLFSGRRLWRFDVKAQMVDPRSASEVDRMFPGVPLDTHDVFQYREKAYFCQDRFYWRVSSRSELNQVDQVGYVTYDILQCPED
Procedure: The activity of MMP-9 was measured also using the fluorogenic peptide substrate MCA-Pro-Leu-Ala-Nva-Dpa-Ala-Arg (Calbiochem, San Diego, Calif., USA). More specifically, 50 ng of MMP-9 was preincubated in PBS for 30 min at RT in the absence or presence of CTT or its liposome complex. Subsequently, the fluorogenic substrate was added to a final concentration of 0.1 mM and the incubation was continued at 37° C. for 15 min, whereafter fluorescence intensities were measured with exitation at 340 nm and emission at 390 nm in a microtiter plate reader.

[4] = test system: U937 leukemia cells; experiment: Association of DPPRho-labelled liposomes with cells; type: cell-based; conditions: U937, 5 min
Procedure: Assays for liposome uptake by cells. In order to study the effects of the different peptides on the cellular uptake of liposomes, rhodamine-labelled phospholipid analog (DPPRho) was incorporated into liposomes as a tracer, to yield a composition POPC/POPE/DPPRho (80:19:1, mol/mol). The indicated peptides were mixed with LUVs and subsequently added to cells cultured in microtiter well plates. After an incubation for 5 min at 38° C. liposomes not bound to the cells were removed by rinsing the cells three times with cold PBS. The relative amount of DPPRho associated with the cells was determined using Tecan Spectrafluor Plus microplate reader (Tecan, Hombrechtigon, Switzerland) with excitation at 535 nm and emission at 595 nm.

[5] = Trp fluorescence emission anisotropy with liposomes; type: physicochemical; conditions: 37° C.
Procedure: Fluorescence polarization of the Trp residue of CTT as a function of increasing concentration of liposomes was measured using rotating polarizers in the excitation and emission beams, with a bandpass of 10 nm. The results are expressed as emission anisotropy (Lakowicz, 1999) calculated as follows: r=(I∥−I⊥)/(I∥+2I⊥). In this equation I⊥ and I∥ represent the emission intensity perpendicular and parallel, respectively, to the excitation polarizer.

[6] = Trp quenching by I- (Stern-Volmer); type: physicochemical; conditions: I- quencher
Procedure: The extent of exposure of Trp to the aqueous phase was studied using I— as a collisional quencher (Lakowicz, 1999). The extent of quenching was calculated by using the equation: F0/F=1+k[Q]=1+kqτ0[Q] where F0 and F are Trp fluorescence intensities at 345 nm in the absence and presence of the quencher, Q, τ0 is Trp fluorescence lifetime in the absence of the quencher, k is the Stern-Volmer constant (obtained from the slope of the linear fit of the data). Fluorescence of Trp in CTT (5 μM) and its quenching were measured in the absence and presence of POPC/POPE (80:20, mol/mol) LUVs (final lipid concentration of 0.5 mM). The results were corrected for background caused by PBS and liposomes. Assay for lipid mixing. The ability of the CTT, CLP, STT, and CWL peptides to induce liposome fusion was assessed by measuring lipid mixing, as described earlier (Struck et al., 1981). In brief, NBD-PE (X=0.01) and DPPRho (X=0.01) were incorporated into liposomes (POPC/POPE, 78/20, mol/mol). Due to the spectral overlap of NBD-PE (donor) emission and DPPRho (acceptor) absorption resonance energy transfer between these dyes is highly efficient. As liposomes containing NBD-PE and DPPRho are mixed with non-labeled liposomes, fusion is observed as an increase in the emission intensity of NBD-PE due to the dilution of probes. […] All fluorescence measurements were done at 37° C.

For `CC(C)C[C@@H]1NC(=O)[C@H]([C@@H](C)O)NC(=O)[C@H](Cc2ccccc2)NC(=O)CNC(=O)[C@H](Cc2c[nH]c3ccccc23)NC(=O)[C@H](Cc2c[nH]cn2)NC(=O)[C@H]([C@@H](C)O)NC(=O)[C@H]([C@@H](C)O)NC(=O)[C@@H](N)CSSC[C@@H](C(=O)O)NC1=O` [CTT] (H-CTTHWGFTLC-OH; disulfide 1-10; N-terminus and C-terminus assumed), the “Endothelial and tumor cell migration in vitro” value [1] is given as “inhibited”, the “Increase in killing of cells vs Adriamycin liposomes without peptide” value [2] is given as 4.1 fold and the IC50 [3] is given as 8 µM. For the same compound, the “Increase of DPPRho marker bound to cells with peptide vs without” value [4] was “approx. 3.7 fold”, the “Trp emission anisotropy r” value ([5]; 230 μM phospholipid, CTT 5 μM) was 0.349 and the “Trp emission anisotropy r” value ([5]; absence of liposomes, CTT 5 μM in PBS) was 0.065. The Stern-Volmer constant ([6]; absence of liposomes) was 0.0087 and the Stern-Volmer constant ([6]; presence of liposomes) was 0.0034.
